How the values were obtained:
[1] = target: T1, PI3Kdelta (Homo sapiens, UniProt O00329); assay: HTRF PI3K biochemical assay, delta isoform; settings: 0.3 nM enzyme, 100 uM ATP, 5 uM PIP2, form screened (Neutral or TFA salt) given per compound
T1 construct: purchased Upstate; Millipore 14-604
Description: (§1) HTRF PI3K Biochemical Assay to Measure Intrinsic Potency of Compound Inhibitors
(§2) The PI3-Kinase biochemical assays were developed to measure the intrinsic potency and compound dependent inhibition of the alpha, beta, delta, and gamma PI3K isoform enzymes. This assay was developed and further optimized from a kit produced by Upstate (Millipore catalog #33-047) and has been configured for HTS and SAR screening. Briefly, this procedure exploits the exquisite specificity and high affinity binding of […] phosphatidyl(3,4,5)triphosphate (PIP3) to the GRP1 pleckstrin homology (PH) domain to generate the signal. In the absence of PIP3, an HTRF (Homogeneous Time-Resolved Fluorescence energy transfer) complex is formed consisting of europium (Eu)-labeled anti-GST, GSTtagged GRP1-PH domain, biotin-PIP3 and streptavidin conjugated APC. The native PIP3 produced by PI3-Kinase activity disrupts in a competitive manner the biotin-PIP3 from the PH domain, resulting in the loss of energy transfer (HTRF complex) and a decrease in the signal. The format of this assay is the same for all 4 isoforms of PI3K; the differences lie in the concentration of enzyme used to achieve robust assay window. The alpha, beta, and delta assays are run at 0.5, 1, and 0.3 nM enzymes and the gamma assay is run at 5 nM enzyme. The ATP concentration is 100 uM in the alpha, beta, and delta assays and 50 uM ATP in the gamma assay. All reactions are run at 5 uM PIP2.
(§3) Compounds are serially diluted (3-fold in 100% DMSO) across a 384-well polypropylene source plated from column 3 to column 12 and column 13 to column 22, to yield 10 concentration dose response for each test compound. Columns 1, 2, 23 and 24 contain either only DMSO or pharmacological known control inhibitor. Once titrations are made, 2.5 nL of the compounds on 384 well plates are reformatted and transferred by acoustic dispense in quadruplicates to a 1536 assay plate (Greiner) to assay across all four PI3K isoform enzymes.
(§4) The PI3-Kinase biochemical assay was optimized using the HTRF kit provided by Upstate (Millipore). The assay kit contains six reagents: 1) 4× Reaction Buffer; 2) native PIP2 (substrate); 3) Stop (EDTA); 4) Detection Mix A (Streptavidin-APC); 5) Detection Mix B (Eu-labeled Anti-GST plus GST-tagged PH-domain); 6) Detection Mix C. In addition, the following items were obtained or purchased; PI3Kinase (alpha 14-602, beta 14-603, gamma 14-558 and delta 14-604 from Upstate; Millipore), dithiothreitol (Sigma, D-5545), Adenosine-5′ triphosphate (InVitrogen, Cat#AS001A), native PIP3 (PI(3,4,5)P3, diC8, H^+, CELLSIGNALS, INC. Cat #907) DMSO (Sigma, 472301).
(§5) PI3Kinase Reaction Buffer is prepared by dilution the stock 1:4 with de-ionized water. DTT, PIP2 and Biotin-PIP3 were added to 1536 assay plate at a final concentration of 5 mM, […] 25 nM on the day of use. Enzyme addition and compound pre-incubation are initiated by the addition of 1.25 ul of PI3K (at twice its final concentration) in the 1× reaction buffer to all wells using a BioRaptor. Plates are incubated at room temperature for 15 minutes. Reactions are initiated by addition of 1.25 ul of 2× substrate solution (PIP2 and ATP in 1× reaction buffer) using BioRaptor. Plates are incubated in humidified chamber at room temperature for one hour. Reactions are quenched by addition of 0.625 uL of stop solution to all wells using the BioRaptor. The quenched reactions are then processed to detect product formation by adding 0.625 uL of Detection Solution to all wells using the BioRaptor (Detection mix C, Detection Mix A, and Detection Mix B combined together in an 18:1:1 ratio prepared 2 hours prior to use). Following a one hour incubation in the dark, the HTRF signal is measured on the Envision plate reader set for 330 nm excitation and dual emission detection at […]. […]

[2] = target: T2, PI3Kalpha (Homo sapiens, UniProt P42336); assay: HTRF PI3K biochemical assay, alpha isoform (selectivity versus delta); settings: relative ratio PI3K-alpha IC50 value / PI3K-delta IC50 value
T2 construct: purchased Upstate; Millipore 14-602
Description: as §1, §2, §3, §4, §5

T1 sequence (O00329 whole entry, canonical isoform): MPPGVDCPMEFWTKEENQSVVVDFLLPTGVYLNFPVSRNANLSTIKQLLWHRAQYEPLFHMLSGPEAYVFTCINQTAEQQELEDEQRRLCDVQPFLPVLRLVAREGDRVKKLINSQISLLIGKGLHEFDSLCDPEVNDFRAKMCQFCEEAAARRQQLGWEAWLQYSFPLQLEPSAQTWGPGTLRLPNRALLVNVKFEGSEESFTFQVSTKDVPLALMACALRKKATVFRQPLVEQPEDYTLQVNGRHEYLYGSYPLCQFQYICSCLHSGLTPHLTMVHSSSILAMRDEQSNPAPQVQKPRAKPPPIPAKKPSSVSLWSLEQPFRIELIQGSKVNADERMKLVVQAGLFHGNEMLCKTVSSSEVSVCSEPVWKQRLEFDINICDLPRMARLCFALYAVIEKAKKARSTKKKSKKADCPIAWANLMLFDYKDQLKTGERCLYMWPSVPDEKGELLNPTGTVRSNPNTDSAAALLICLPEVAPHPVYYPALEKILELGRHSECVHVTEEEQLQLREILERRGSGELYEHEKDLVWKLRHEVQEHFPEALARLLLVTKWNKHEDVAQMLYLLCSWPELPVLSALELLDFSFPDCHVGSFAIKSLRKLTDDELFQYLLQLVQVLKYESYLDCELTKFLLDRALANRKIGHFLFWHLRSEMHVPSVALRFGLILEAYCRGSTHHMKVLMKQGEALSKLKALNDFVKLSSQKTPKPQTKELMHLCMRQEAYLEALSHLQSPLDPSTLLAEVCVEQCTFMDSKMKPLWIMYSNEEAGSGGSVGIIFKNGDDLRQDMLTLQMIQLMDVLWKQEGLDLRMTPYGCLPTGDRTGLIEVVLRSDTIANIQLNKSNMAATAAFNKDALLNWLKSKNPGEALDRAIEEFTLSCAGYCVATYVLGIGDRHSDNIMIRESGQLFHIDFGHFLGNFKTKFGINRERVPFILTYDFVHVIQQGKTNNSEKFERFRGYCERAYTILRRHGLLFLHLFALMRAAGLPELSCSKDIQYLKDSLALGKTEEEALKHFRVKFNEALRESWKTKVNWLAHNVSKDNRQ
T1 sequence (P27986 whole entry partner, canonical isoform): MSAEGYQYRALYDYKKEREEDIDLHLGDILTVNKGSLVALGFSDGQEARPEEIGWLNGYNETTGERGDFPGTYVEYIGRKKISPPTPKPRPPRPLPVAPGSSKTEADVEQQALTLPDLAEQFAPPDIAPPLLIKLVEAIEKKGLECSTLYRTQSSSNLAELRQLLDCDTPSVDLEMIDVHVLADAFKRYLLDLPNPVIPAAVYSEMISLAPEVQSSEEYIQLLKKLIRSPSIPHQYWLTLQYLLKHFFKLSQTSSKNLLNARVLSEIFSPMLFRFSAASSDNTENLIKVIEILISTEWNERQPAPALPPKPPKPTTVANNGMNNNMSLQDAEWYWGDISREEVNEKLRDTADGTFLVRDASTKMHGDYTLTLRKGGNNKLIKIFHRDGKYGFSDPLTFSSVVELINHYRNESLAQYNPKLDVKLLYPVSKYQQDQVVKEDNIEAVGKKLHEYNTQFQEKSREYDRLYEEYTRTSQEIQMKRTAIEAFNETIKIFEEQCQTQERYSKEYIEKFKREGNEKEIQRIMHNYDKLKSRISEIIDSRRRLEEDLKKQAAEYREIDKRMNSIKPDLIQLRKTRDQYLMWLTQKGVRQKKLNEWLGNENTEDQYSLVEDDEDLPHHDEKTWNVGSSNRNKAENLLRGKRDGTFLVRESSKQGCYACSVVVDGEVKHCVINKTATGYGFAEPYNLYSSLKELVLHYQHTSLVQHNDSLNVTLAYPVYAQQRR
T2 sequence (P42336 whole entry, canonical isoform): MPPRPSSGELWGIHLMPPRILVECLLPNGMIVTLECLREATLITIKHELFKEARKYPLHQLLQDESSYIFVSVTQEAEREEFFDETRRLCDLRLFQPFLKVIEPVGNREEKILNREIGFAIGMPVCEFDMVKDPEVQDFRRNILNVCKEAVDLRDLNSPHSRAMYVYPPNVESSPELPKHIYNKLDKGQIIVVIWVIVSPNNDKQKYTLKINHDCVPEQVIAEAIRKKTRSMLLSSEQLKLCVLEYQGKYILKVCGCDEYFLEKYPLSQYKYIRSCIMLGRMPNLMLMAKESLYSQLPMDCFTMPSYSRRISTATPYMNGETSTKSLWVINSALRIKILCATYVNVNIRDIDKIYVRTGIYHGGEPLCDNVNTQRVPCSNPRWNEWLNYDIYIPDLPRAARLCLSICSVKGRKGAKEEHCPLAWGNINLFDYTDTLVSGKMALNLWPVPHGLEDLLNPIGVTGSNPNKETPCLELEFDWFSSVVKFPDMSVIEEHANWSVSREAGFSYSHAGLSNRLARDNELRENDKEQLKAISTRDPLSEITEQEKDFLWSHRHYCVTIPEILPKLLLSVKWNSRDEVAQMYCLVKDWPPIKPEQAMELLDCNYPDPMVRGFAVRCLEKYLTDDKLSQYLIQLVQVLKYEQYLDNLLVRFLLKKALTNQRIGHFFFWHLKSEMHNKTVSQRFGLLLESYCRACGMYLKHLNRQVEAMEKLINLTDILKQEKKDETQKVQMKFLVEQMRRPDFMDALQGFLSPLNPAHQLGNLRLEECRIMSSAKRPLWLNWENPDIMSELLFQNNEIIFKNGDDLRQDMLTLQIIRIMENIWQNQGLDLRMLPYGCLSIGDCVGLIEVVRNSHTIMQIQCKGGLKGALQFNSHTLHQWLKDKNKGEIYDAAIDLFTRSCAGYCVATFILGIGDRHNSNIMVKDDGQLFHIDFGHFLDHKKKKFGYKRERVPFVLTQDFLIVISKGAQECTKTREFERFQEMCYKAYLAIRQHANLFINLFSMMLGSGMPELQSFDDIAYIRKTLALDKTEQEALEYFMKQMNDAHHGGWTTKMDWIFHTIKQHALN
T2 sequence (P27986 whole entry partner, canonical isoform): as the sequence (P27986 whole entry partner, canonical isoform) above

Row | Structure (SMILES) | IC50 [1] [µM] | Selectivity versus PI3Kalpha [2]
1 | CCn1c(-c2cnc(C)nc2)nc2c(NC3CCc4c(c(C(C)C)nn4C(=O)OC(C)C)C3)ncnc21 (racemic) [Compound 2-18, (S and R)-1-methylethyl 5-{[9-ethyl-8-(2-methylpyrimidin-5-yl)-9H-purin-6-yl]amino}-3-(1-methylethyl)-4,5,6,7-tetrahydro-1H-indazole-1-carboxylate] | < 0.001 | >10
2 | CCn1c(-c2cnc(C)nc2)nc2c(NC3CCc4c(c(C(C)C)nn4C(=O)OC(C)(C)C(F)(F)F)C3)ncnc21 (racemic) [Compound 2-20, (S and R)-2,2,2-trifluoro-1,1-dimethylethyl 5-{[9-ethyl-8-(2-methylpyrimidin-5-yl)-9H-purin-6-yl]amino}-3-(1-methylethyl)-4,5,6,7-tetrahydro-1H-indazole-1-carboxylate] | 0.0026 | >10
3 | CCn1c(-c2cnc(C)nc2)nc2c(NC3CCc4c(c(C(C)C)nn4C(=O)NC(C)(C)C)C3)ncnc21 (racemic) [Compound 2-21, (S and R)-N-tert-butyl-5-{[9-ethyl-8-(2-methylpyrimidin-5-yl)-9H-purin-6-yl]amino}-3-(1-methylethyl)-4,5,6,7-tetrahydro-1H-indazole-1-carboxamide] | 0.016 | >10
4 | CCn1c(-c2cnc(C)nc2)nc2c(NC3CCc4c(c(C(C)C)nn4-c4ccccn4)C3)ncnc21 (racemic) [Compound 2-22, (S and R)-9-ethyl-N-[3-(1-methylethyl)-1-pyridin-2-yl-4,5,6,7-tetrahydro-1H-indazol-5-yl]-8-(2-methylpyrimidin-5-yl)-9H-purin-6-amine] | 0.011 | >10
5 | CCn1c(-c2cnc(C)nc2)nc2c(NC3CCc4c(c(C(C)C)nn4S(C)(=O)=O)C3)ncnc21 (racemic) [Compound 2-23, (S and R)-9-ethyl-N-[3-(1-methylethyl)-1-(methylsulfonyl)-4,5,6,7-tetrahydro-1H-indazol-5-yl]-8-(2-methylpyrimidin-5-yl)-9H-purin-6-amine] | < 0.001 | >10
6 | CCn1c(-c2cnc(C)nc2)nc2c(NC3Cc4cnn(Cc5ccccc5)c4C3)ncnc21 (racemic) [Compound 2-26, (S and R)-N-(1-benzyl-1,4,5,6-tetrahydrocyclopenta[c]pyrazol-5-yl)-9-ethyl-8-(2-methylpyrimidin-5-yl)-9H-purin-6-amine] | 0.0061 | >10
7 | CCc1nn(CC)c2c1CC(Oc1ncnc3c1nc(-c1cnc(C)nc1)n3CC)CC2 (racemic) [Compound 2-27, (S and R)-6-[(1,3-diethyl-4,5,6,7-tetrahydro-1H-indazol-5-yl)oxy]-9-ethyl-8-(2-methylpyrimidin-5-yl)-9H-purine] | 0.025 | >10
8 | CCc1cnc2n1CC(Oc1ncnc3c1nc(-c1cnc(C)nc1)n3CC)C2 (racemic) [Compound 4-5, (S and R)-9-ethyl-6-[(3-ethyl-6,7-dihydro-5H-pyrrolo[1,2-a]imidazol-6-yl)oxy]-8-(2-methylpyrimidin-5-yl)-9H-purine] | 0.55 | >10
9 | CCn1c(-c2cnc(C)nc2)nc2c(NC3CCc4nc(Cl)n(C5CC5)c4C3)ncnc21 (racemic) [Compound 5-12, (S and R)-N-(2-chloro-1-cyclopropyl-4,5,6,7-tetrahydro-1H-benzimidazol-6-yl)-9-ethyl-8-(2-methylpyrimidin-5-yl)-9H-purin-6-amine] | < 0.001 | >10
10 | CCn1c(-c2cnc(C)nc2)nc2c(NC3CCc4nnc(C5CC5)n4C3)ncnc21 (single isomer, unassigned) [Compound 1-1, (S or R)-N-(3-cyclopropyl-5,6,7,8-tetrahydro[1,2,4]triazolo[4,3-a]pyridin-6-yl)-9-ethyl-8-(2-methylpyrimidin-5-yl)-9H-purin-6-amine] | 0.0042 | >10
11 | CCn1c(-c2cnc(C)nc2)nc2c(NC3CCc4nnc(C5CC5)n4C3)ncnc21 (single isomer, unassigned) [Compound 1-2, (S or R)-N-(3-cyclopropyl-5,6,7,8-tetrahydro[1,2,4]triazolo[4,3-a]pyridin-6-yl)-9-ethyl-8-(2-methylpyrimidin-5-yl)-9H-purin-6-amine] | 0.065 | >10
12 | CCn1c(-c2cnc(C)nc2)nc2c(NC3CCc4nnc(-c5ccccc5)n4C3)ncnc21 (single isomer, unassigned) [Compound 1-3, (S or R)-9-ethyl-8-(2-methylpyrimidin-5-yl)-N-[3-phenyl-5,6,7,8-tetrahydro[1,2,4]triazolo[4,3-a]pyridin-6-yl]-9H-purin-6-amine] | 0.0059 | >10
13 | CCn1c(-c2cnc(C)nc2)nc2c(NC3CCc4nnc(C(C)C)n4C3)ncnc21 (single isomer, unassigned) [Compound 1-4, (S or R)-9-ethyl-N-[3-(1-methylethyl)-5,6,7.8-tetrahydro[1,2,4]triazolo[4,3-a]pyridin-6-yl]-8-(2-methylpyrimidin-5-yl)-9H-purin-6-amine] | 0.046 | >10
14 | CCn1c(-c2cnc(C)nc2)nc2c(NC3CCc4nnc(C(C)C)n4C3)ncnc21 (single isomer, unassigned) [Compound 1-5, (S or R)-9-ethyl-N-[3-(1-methylethyl)-5,6,7,8-tetrahydro[1,2,4]triazolo[4,3-a]pyridin-6-yl]-8-(2-methylpyrimidin-5-yl)-9H-purin-6-amine] | 0.0011 | >10
15 | CCc1nnc2n1CC(Nc1ncnc3c1nc(-c1cnc(C)nc1)n3CC)CC2 (single isomer, unassigned) [Compound 1-6, (S or R)-9-ethyl-N-[3-ethyl-5,6,7,8-tetrahydro[1,2,4]triazolo[4,3-a]pyridin-6-yl]-8-(2-methylpyrimidin-5-yl)-9H-purin-6-amine] | 0.002 | >10
16 | CCc1nnc2n1CC(Nc1ncnc3c1nc(-c1cnc(C)nc1)n3CC)CC2 (single isomer, unassigned) [Compound 1-7, (S or R)-9-ethyl-N-[3-ethyl-5,6,7,8-tctrahydro[1,2,4]triazolo[4,3-a]pyridin-6-yl]-8-(2-methylpyrimidin-5-yl)-9H-purin-6-amine] | 0.013 | >10
17 | CCn1c(C(F)F)nc2c(NC3CCc4nnc(C(C)C)n4C3)ncnc21 (single isomer, unassigned) [Compound 1-8, (S or R)-8-(difluoromethyl)-9-ethyl-N-[3-(1-methylethyl)-5,6,7,8-tetrahydro[1,2,4]triazolo[4,3-a]pyridin-6-yl]-9H-purin-6-amine] | 0.46 | >10
18 | CCn1c(C(F)F)nc2c(NC3CCc4nnc(C(C)C)n4C3)ncnc21 (single isomer, unassigned) [Compound 1-9, (S or R)-8-(difluoromethyl)-9-ethyl-N-[3-(1-methylethyl)-5,6,7,8-tetrahydro[1,2,4]triazolo[4,3-a]pyridin-6-yl]-9H-purin-6-amine] | 0.016 | >10
